We go through 14 compounds from patent US12473298B2, “Amide compounds, preparation method therefor, and use thereof in the medical field” (Shanghai Synergy Pharmaceutical Sciences Co., Ltd., priority 2019, dated 2025).

In series [1] the test system is human diffuse large cell lymphoma B lymphocytes (Pfeiffer cell). The series can be described thus: Pfeiffer cell proliferation, Calcein AM staining. In kind it is cell-based.
From the text: The diffuse large cell lymphoma B lymphocytes (Pfeiffer cells) were collected and counted when growing well.
For series [2], the system named is human diffuse large B-cell lymphoma cells (Karpas 422 cell). The series can be described thus: Karpas 422 cell proliferation, Calcein AM staining. In kind it is cell-based.
A short description of series [3]: Pharmacokinetic experiment in rats. In kind it is in vivo, SD rats. The method, then:
A certain amount of compound was weighted and dissolved in 0.1% Tween under vortex and ultrasound, and 0.5% carboxymethyl cellulose sodium (CMC-NA) solution was added to form a uniform solution.

Series [4] concerns the target wild-type EZH2 (Homo sapiens (Human), UniProt Q15910). As to the kind of experiment: radiometric assay, activity to wild-type EZH2 of PRC2. To be noted: read-out: Wild-type EZH2 IC50 Nanomoles per Liter.
Method: 25 μL of reaction solution was transferred to a scintillation plate, which was incubated at room temperature for 1 hour (h) and washed with deionized water and 0.1% Tween 20 for three times. A PerkinElmer liquid scintillation/luminescence counter was used to read the value, and GraphPad Prism 5 was used to calculate the median inhibitory concentration (IC50) of the compounds.
Setting [5] is: Homo sapiens, Pfeiffer, data of 14th day, read-out: Pfeiffer Proliferation IC50 Nanomoles per Liter.
[6] abbreviates: Homo sapiens, KARPAS-422, data of 14th day, read-out: Karpas422 Proliferation IC50 Nanomoles per Liter.
The mark [7] stands for this setting: male, SD, rat, plasma, rats, Intravenous-Dose 4 mg/kg, read-out: Area Curve (AUC, ng/mL · h).
[8] abbreviates: male, SD, rat, plasma; rats, Intravenous-Dose 4 mg/kg; read-out: Half life T1/2, h) (converted).
The mark [9] stands for this setting: male, SD, rat, plasma, rats, Oral-Dose 20 mg/kg, read-out: Area Curve (AUC, ng/mL · h).
Setting [10] is: male, SD, rat, plasma, rats, Oral-Dose 20 mg/kg, read-out: Blood Drug level (Cmax, ng/mL).
The mark [11] stands for this setting: male, SD, rat, plasma, rats, oral 20 mg/kg vs intravenous 4 mg/kg, read-out: Bioavailability (P %).
Where [12] appears, read: male, SD, rat, in vivo, iv, 4 mg/kg.
The mark [13] stands for this setting: male, SD, rat, in vivo, po, 20 mg/kg.
The mark [14] stands for this setting: Homo sapiens, Pfeiffer, read-out: Pfeiffer Proliferation IC50 Nanomoles per Liter (nM).
Setting [15] is: Homo sapiens, KARPAS-422, read-out: Karpas422 Proliferation IC50 Nanomoles per Liter (nM).

Like-named read-outs stand apart in the source and are kept apart here.

Sequence of wild-type EZH2 (Q15910 whole entry): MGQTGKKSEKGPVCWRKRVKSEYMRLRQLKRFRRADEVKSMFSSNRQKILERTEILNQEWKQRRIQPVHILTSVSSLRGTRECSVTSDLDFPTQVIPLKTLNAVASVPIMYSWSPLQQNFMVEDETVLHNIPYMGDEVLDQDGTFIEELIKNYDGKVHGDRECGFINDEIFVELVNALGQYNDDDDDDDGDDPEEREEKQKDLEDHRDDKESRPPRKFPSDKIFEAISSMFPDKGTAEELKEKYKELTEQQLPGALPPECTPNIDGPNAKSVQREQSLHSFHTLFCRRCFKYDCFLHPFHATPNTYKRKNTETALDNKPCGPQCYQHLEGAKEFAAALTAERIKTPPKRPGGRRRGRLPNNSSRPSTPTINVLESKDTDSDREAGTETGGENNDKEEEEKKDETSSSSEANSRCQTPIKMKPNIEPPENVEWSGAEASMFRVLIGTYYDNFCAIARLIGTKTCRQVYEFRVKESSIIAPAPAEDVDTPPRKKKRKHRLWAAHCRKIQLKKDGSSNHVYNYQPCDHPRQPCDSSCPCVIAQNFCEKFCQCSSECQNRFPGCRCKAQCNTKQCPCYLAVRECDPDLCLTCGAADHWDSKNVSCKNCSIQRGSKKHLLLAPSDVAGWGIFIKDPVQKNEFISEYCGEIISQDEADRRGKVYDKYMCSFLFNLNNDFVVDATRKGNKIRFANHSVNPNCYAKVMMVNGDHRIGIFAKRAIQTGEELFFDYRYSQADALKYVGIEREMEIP
Sequence of wild-type EZH2 (O75530 whole entry partner): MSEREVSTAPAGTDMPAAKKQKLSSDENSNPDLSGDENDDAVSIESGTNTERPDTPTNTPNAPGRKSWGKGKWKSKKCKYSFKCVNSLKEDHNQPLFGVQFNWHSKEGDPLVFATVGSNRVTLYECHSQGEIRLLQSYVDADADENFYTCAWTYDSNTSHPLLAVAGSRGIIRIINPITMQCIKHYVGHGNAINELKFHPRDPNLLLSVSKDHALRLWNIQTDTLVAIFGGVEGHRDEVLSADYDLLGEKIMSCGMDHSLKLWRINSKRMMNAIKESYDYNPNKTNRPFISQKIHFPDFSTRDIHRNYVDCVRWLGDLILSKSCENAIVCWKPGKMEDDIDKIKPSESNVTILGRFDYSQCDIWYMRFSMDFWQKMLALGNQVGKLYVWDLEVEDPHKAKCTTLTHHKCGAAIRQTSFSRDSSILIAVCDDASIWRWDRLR
Sequence of wild-type EZH2 (Q15022 whole entry partner): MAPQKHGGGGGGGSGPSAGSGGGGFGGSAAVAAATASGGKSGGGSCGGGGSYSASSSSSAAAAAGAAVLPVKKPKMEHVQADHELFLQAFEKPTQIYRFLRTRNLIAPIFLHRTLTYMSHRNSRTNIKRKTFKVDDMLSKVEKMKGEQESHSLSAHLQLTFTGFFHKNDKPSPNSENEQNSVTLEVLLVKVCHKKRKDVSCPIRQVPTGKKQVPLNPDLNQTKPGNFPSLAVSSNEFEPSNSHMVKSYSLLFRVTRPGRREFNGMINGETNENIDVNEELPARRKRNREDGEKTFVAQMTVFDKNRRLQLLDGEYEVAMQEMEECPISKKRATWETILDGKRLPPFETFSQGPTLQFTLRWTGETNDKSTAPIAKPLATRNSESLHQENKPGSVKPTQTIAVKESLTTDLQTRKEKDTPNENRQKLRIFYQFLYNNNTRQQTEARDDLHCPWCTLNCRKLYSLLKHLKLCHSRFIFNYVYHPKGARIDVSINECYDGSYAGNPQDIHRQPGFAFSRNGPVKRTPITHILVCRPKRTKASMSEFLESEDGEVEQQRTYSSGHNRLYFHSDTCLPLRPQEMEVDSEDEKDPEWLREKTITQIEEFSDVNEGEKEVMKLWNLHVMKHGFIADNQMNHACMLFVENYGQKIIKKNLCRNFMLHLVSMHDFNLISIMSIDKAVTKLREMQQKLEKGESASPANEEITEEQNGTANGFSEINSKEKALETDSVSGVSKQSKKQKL

By bioavailability is commonly meant the share of a dose that reaches the circulation, judged against a reference dose that is usually intravenous. In the case of `CCN(c1cc(-c2ccc3c(c2)N(C)C(=O)C32CCN(C(=O)OC)CC2)cc(C(=O)NCc2c(C)cc(C)[nH]c2=O)c1C)C1CCOCC1` [Example 32, Methyl 6-(3-(((4,6-dimethyl-2-carbonyl-1,2-dihydropyridin-3-yl)methyl)carbamoyl)-5-(ethyl(tetrahydro-2H-pyran-4-yl)amino)-4-methylphenyl)-1-methyl-2-carbonylspiro[dihydroindole-3,4′-piperidine]-1′-carboxylate], the IC50 was 1.21 nM in series [1] (setting [5]) and 1.73 nM in series [2] (setting [6]). The figures for the AUC in series [3] (setting [7]) and in series [3] (setting [9]) were 943 ng·h/mL and 1360 ng·h/mL, respectively. Besides, the half-life in series [3] (setting [8]) was 1.64 h. For the same compound, the Cmax in series [3] (setting [10]) was found to be 431 ng/mL. The bioavailability in series [3] (setting [11]) stood at 28.8%.
As to `CCN(c1cc(-c2ccc3c(c2)N(CCC(F)(F)F)C(=O)C32CCOCC2)cc(C(=O)NCc2c(C)cc(C)[nH]c2=O)c1C)C1CCOCC1` [Example 14, N-((4,6-dimethyl-2-carbonyl-1,2-dihydropyridin-3-yl)methyl)-3-(ethyl(tetrahydro-2H-pyran-4-yl)amino)-2-methyl-5-(2-carbonyl-1-(3,3,3-trifluoropropyl)-2′,3′,5′,6′-tetrahydrospiro[dihydroindole-3,4′-pyran]-6-yl)benzamide], the IC50 is 0.68 nM in series [1] (setting [5]) and 1.73 nM in series [2] (setting [6]). In addition, the results for the AUC in series [3] (setting [7]) and in series [3] (setting [9]) were 966 ng·h/mL and 1290 ng·h/mL, respectively. For the same compound, the half-life in series [3] (setting [8]) was 1.69 h. The Cmax in series [3] (setting [10]) was 530 ng/mL. In series [3] (setting [11]), the bioavailability stood at 26.8%.
As to `CCN(c1cc(-c2ccc3c(c2)N(CC(F)(F)F)C(=O)C32CCOCC2)cc(C(=O)NCc2c(C)cc(C)[nH]c2=O)c1C)C1CCOCC1` [Example 13, N-((4,6-dimethyl-2-carbonyl-1,2-dihydropyridin-3-yl)methyl)-3-(ethyl(tetrahydro-2H-pyran-4-yl)amino)-2-methyl-5-(2-carbonyl-1-(2,2,2-trifluoroethyl)-2′,3′,5′,6′-tetrahydrospiro[dihydroindole-3,4′-pyran]-6-yl)benzamide], the values for the IC50 in series [1] (setting [5]) and in series [2] (setting [6]) were 0.94 nM and 1.94 nM, respectively. The AUC in series [3] (setting [7]) came to 975 ng·h/mL; in series [3] (setting [9]), 1190 ng·h/mL. In series [3] (setting [8]), the half-life is 1.87 h. Besides, the Cmax in series [3] (setting [10]) is 433 ng/mL. The bioavailability in series [3] (setting [11]) came out at 24.4%.
On to `CCN1CCC2(CC1)CN(C)c1cc(-c3cc(C(=O)NCc4c(C)cc(C)[nH]c4=O)c(C)c(N(CC)C4CCOCC4)c3)ccc12` [Example 30, N-((4,6-dimethyl-2-oxo-1,2-dihydropyridin-3-yl)methyl)-3-(ethyl(tetrahydro-2H-pyran-4-yl)amino)-5-(1′-ethyl-1-methylspiro[dihydroindole-3,4′-piperidine]-6-yl)-2-methylbenzamide], for which the IC50 in series [1] (setting [5]) is […]. Besides, the IC50 in series [2] (setting [6]) was 1.2 nM. Also, in series [3] (setting [12]), the AUC stood at 879 ng·h/mL and the half-life is 1.24 h. In series [3] (setting [13]), this compound showed an AUC of 1260 ng·h/mL, a Cmax of 443 ng/mL and a bioavailability of 28.6%.
With `CCN(c1cc(-c2ccc3c(c2)N(CCOC)C(=O)C32CCOCC2)cc(C(=O)NCc2c(C)cc(C)[nH]c2=O)c1C)C1CCOCC1` [Example 45, N-((4,6-dimethyl-2-oxo-1,2-dihydropyridin-3-yl)methyl)-3-(ethyl(tetrahydro-2H-pyran-4-yl)amino)-5-(1-(2-methoxyethyl)-2-oxo-2′,3′,5′,6′-tetrahydrospiro[dihydroindole-3,4′-pyran]-6-yl)-2-methylbenzamide], the results for the IC50 in series [1] (setting [5]), in series [2] (setting [6]) and in series [4] were 0.12 nM, 0.43 nM and 0.71 nM, respectively. For the same compound, the AUC in series [3] (setting [7]) is 944 ng·h/mL; in series [3] (setting [9]), 1310 ng·h/mL. The half-life in series [3] (setting [8]) was 1.71 h. In addition, the Cmax in series [3] (setting [10]) was found to be 505 ng/mL. The bioavailability in series [3] (setting [11]) was found to be 27.7%.
`CCN(c1cc(-c2ccc3c(c2)NC(=O)C32CCN(C(=O)OC(C)(C)C)CC2)cc(C(=O)NCc2c(C)cc(C)[nH]c2=O)c1C)C1CCOCC1` [Example 79, Tert-butyl 6-(3-(((4,6-dimethyl-2-oxo-1,2-dihydropyridin-3-yl)methyl)carbamoyl)-5-(ethyl(tetrahydro-2H-pyran-4-yl)amino)-4-methylphenyl)-2-oxospiro[dihydroindole-3,4′-piperidine]-1′-carboxylate]: the IC50 in series [1] (setting [5]) is 1.65 nM; in series [2] (setting [6]) it was 2.65 nM; in series [4], 1.09 nM.
In the case of `CCN1C(=O)C2(CCOCC2)c2ccc(-c3cc(N(CC)C4CCOCC4)c(C)c(C(=O)NCc4c(C)cc(C)[nH]c4=O)c3Cl)cc21` [Example 48, 2-chloro-N-((4,6-dimethyl-2-oxo-1,2-dihydropyridin-3-yl)methyl)-5-(ethyl(tetrahydro-2H-pyran-4-yl)amino)-3-(1-ethyl-2-oxo-2′,3′,5′,6′-tetrahydrospiro[dihydroindole-3,4′-pyran]-6-yl)-6-methylbenzamide], the IC50 is 1.42 nM in series [1] (setting [14]) and 1.99 nM in series [2] (setting [15]).
Regarding `CCCN1CC2(CCOCC2)c2ccc(-c3cc(N(CC)C4CCOCC4)c(C)c(C(=O)NCc4c(C)cc(C)[nH]c4=O)c3F)cc21` [Example 59, N-((4,6-dimethyl-2-carbonyl-1,2-dihydropyridin-3-yl)methyl)-3-(ethyl(tetrahydro-2H-pyran-4-yl)amino)-6-fluoro-2-methyl-5-(1-propyl-2′,3′,5′,6′-tetrahydrospiro[dihydroindole-3,4′-pyran]-6-yl)benzamide], the IC50 is 1.97 nM in series [1] (setting [5]) and 3.35 nM in series [2] (setting [6]).
In the case of `CCN(c1cc(-c2ccc3c(c2)N(CCC(F)(F)F)CC32CCOCC2)cc(C(=O)NCc2c(C)cc(C)[nH]c2=O)c1C)C1CCOCC1` [Example 26, N-((4,6-dimethyl-2-oxo-1,2-dihydropyridin-3-yl)methyl)-3-(ethyl(tetrahydro-2H-pyran-4-yl)amino)-2-methyl-5-(1-(3,3,3-trifluoropropyl)-2′,3′,5′,6′-tetrahydrospiro[indoline-3,4′-pyran]-6-yl)benzamide], the IC50 in series [1] (setting [5]) is 1.85 nM; in series [2] (setting [6]), 2.53 nM.
Turning to `CCN(c1cc(-c2ccc3c(c2)N(CC(F)(F)F)CC32CCOCC2)cc(C(=O)NCc2c(C)cc(C)[nH]c2=O)c1C)C1CCOCC1` [Example 20, N-((4,6-dimethyl-2-carbonyl-1,2-dihydropyridin-3-yl)methyl)-3-(ethyl(tetrahydro-2H-pyran-4-yl)amino)-2-methyl-5-(1-(2,2,2-trifluoroethyl)-2′,3′,5′,6′-tetrahydrospiro[dihydroindole-3,4′-pyran]-6-yl)benzamide], the IC50 in series [1] (setting [5]) is 2.32 nM; in series [2] (setting [6]), 3.03 nM.
On the same counts, the results for `CCN1CC2(CCOCC2)c2ccc(-c3cc(N(CC)C4CCOCC4)c(C)c(C(=O)NCc4c(C)cc(C)[nH]c4=O)c3Cl)cc21` [Example 54, 2-chloro-N-((4,6-dimethyl-2-carbonyl-1,2-dihydropyridin-3-yl)methyl)-5-(ethyl(tetrahydro-2H-pyran-4-yl)amino)-3-(1-ethyl-2′,3′,5′,6′-tetrahydrospiro[dihydroindole-3,4′-pyran]-6-yl)-6-methylbenzamide] are 1.87 nM and 3.67 nM.
Turning to `CCN(c1cc(-c2ccc3c(c2)N(CC(F)(F)C(F)(F)F)C(=O)C32CCOCC2)cc(C(=O)NCc2c(C)cc(C)[nH]c2=O)c1C)C1CCOCC1` [Example 39, N-((4,6-dimethyl-2-oxo-1,2-dihydropyridin-3-yl)methyl)-3-(ethyl(tetrahydro-2H-pyran-4-yl)amino)-2-methyl-5-(2-oxo-1-(2,2,3,3,3-pentafluoropropyl)-2′,3′,5′,6′-tetrahydrospiro[dihydroindole-3,4′-pyran]-6-yl)benzamide], the IC50 in series [1] (setting [14]) was 0.3 nM; in series [2] (setting [15]), 0.82 nM. For the same compound, the AUC in series [3] (setting [7]) was found to be 897 ng·h/mL; in series [3] (setting [9]) it was 1090 ng·h/mL. Also, the half-life in series [3] (setting [8]) is 1.62 h. In series [3] (setting [10]), the Cmax came to 478 ng/mL. For the same compound, in series [3] (setting [11]), the bioavailability came out at 24.4%.
Turning to “N-((4,6-dimethyl-2-carbonyl-1,2-dihydropyridin-3-yl)methyl)-3-(ethyl(tetrahydro-2H-pyran-4-yl)amino)-2-methyl-5-(1-neopentyl-2′,3′,5′,6′-tetrahydrospiro[dihydroindole-3,4′-pyran]-6-yl)benzamide [Example 29]”, the figures for the IC50 in series [1] (read-out: Pfeiffer Proliferation IC50 Nanomoles per Liter) and in series [2] (read-out: Karpas422 Proliferation IC50 Nanomoles per Liter) were 2.13 nM and 3.01 nM, respectively.
On to `CCN(c1cc(-c2ccc3c(c2)CCC32CCOCC2)cc(C(=O)NCc2c(OC)cc(C)[nH]c2=O)c1C)C1CCOC(C)(C)C1` (centres unmarked) [Example 43, 3-((2,2-dimethyltetrahydro-2H-pyran-4-yl)(ethyl)amino)-5-(2,2′,3,3′,5′,6′-hexahydrospiro[indene-1,4-pyran]-5-yl)-N-((4-methoxy-6-methyl-2-oxo-1,2-dihydropyridin-3-yl)methyl)-2-methylbenzamide], for which the figures for the IC50 in series [1] (setting [14]) and in series [2] (setting [15]) were 1.19 nM and 1.36 nM, respectively. The AUC in series [3] (setting [7]) was 1030 ng·h/mL; in series [3] (setting [9]), 1620 ng·h/mL. Further, in series [3] (setting [8]), the half-life is 1.64 h. The Cmax in series [3] (setting [10]) was 490 ng/mL. In addition, the bioavailability in series [3] (setting [11]) came out at 31.3%.
